Test [1] addresses T1, Malonyl-CoA decarboxylase, mitochondrial (Mus musculus, UniProt Q99J39).
T1 sequence (Q99J39 whole entry): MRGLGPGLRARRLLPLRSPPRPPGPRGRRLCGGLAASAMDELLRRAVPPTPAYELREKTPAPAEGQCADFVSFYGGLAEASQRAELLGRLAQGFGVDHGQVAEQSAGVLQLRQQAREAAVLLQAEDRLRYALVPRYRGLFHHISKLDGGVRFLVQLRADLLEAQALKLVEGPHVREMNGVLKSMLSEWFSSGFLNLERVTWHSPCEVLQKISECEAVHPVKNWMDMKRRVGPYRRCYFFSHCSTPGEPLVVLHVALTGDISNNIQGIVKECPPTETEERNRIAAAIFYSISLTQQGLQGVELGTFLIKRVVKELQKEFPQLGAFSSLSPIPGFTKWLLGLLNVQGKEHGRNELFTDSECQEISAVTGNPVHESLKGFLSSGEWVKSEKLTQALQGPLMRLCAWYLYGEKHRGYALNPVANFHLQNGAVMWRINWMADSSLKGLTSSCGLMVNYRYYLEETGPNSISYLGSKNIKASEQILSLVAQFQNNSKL
The experiment in a line: Inhibition of MCD in mouse hepatocytes by whole cell assay. In kind it is cell-based, Hepatocyte.

Test [2] deals with Mus musculus. The experiment in a line: Antiobesity activity in C57B6N mouse assessed as change in hyphalamic malonyl-coA level at 100 mg/kg, po. In kind it is functional.
Test [3] has as its system Mus musculus. Kind of test: Antiobesity activity in C57B6N mouse assessed as change in hyphalamic malonyl-coA level at 30 mg/kg, po. The format is functional.
Test [4] deals with Mus musculus. Kind of test: Antiobesity activity in C57B6N mouse assessed as change in chronic food intake at 30 mg/kg, po. In kind it is functional.
Test [5] has as its system Mus musculus. Kind of test: Antiobesity activity in C57B6N mouse assessed as change in chronic food intake at 100 mg/kg, po. In kind it is functional.
Test [6] concerns Mus musculus. The experiment in a line: Antiobesity activity in C57B6N mouse assessed as change in body weight at 30 mg/kg, po. The format is functional.
Test [7] deals with Mus musculus. The experiment in a line: Antidiabetic activity in C57B6N mouse assessed as decrease in beta-hydroxybutyrate at 30 mg/kg, po. In kind it is functional. Set-up: scale not given: the % may be the effect or the level left.
The subject of test [8] is Mus musculus. Kind of test: Antidiabetic activity in C57B6N mouse assessed as blood glucose correction at 30 mg/kg, po. The format is functional.
For test [9], the system named is Mus musculus. Kind of test: Antiobesity activity in C57B6N mouse assessed as change in body weight at 100 mg/kg, po. The format is functional.
The target of test [10] is T2, Malonyl-CoA decarboxylase, mitochondrial (Homo sapiens, UniProt O95822).
T2 sequence (O95822 whole entry): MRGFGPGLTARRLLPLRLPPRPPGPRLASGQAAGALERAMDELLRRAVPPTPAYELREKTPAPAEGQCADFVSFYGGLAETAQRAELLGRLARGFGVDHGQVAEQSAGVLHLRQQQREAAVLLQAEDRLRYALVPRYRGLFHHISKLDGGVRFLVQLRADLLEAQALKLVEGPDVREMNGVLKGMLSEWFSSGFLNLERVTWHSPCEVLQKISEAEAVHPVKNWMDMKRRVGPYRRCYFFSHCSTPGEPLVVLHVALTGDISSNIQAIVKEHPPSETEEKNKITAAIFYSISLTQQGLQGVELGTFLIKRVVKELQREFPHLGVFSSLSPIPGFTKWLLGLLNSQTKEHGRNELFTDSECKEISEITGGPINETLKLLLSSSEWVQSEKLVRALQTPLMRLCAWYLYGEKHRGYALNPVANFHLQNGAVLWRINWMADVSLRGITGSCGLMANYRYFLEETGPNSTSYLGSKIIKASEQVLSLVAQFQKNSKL
Kind of test: Inhibition of human MCD.

Test [11] has as its system Mus musculus. Kind of test: Antidiabetic activity in C57B6N mouse assessed as blood glucose correction at 10 mg/kg, po. The format is functional.
For test [12], the system named is Mus musculus. The experiment in a line: Antidiabetic activity in C57B6N mouse assessed as decrease in beta-hydroxybutyrate at 3 mg/kg, po. In kind it is functional. Set-up: scale not given: the % may be the effect or the level left.
Test [13] deals with Mus musculus. Kind of test: Antidiabetic activity in C57B6N mouse assessed as blood glucose correction at 3 mg/kg, po. In kind it is functional.
Test [14] concerns Mus musculus. The experiment in a line: Antidiabetic activity in C57B6N mouse assessed as decrease in beta-hydroxybutyrate at 10 mg/kg, po. The format is functional. Set-up: scale not given: the % may be the effect or the level left.

This is an account of results in ChEMBL document CHEMBL1255206, “Design and synthesis of a new class of malonyl-CoA decarboxylase inhibitors with anti-obesity and anti-diabetic activities” (Bioorg Med Chem Lett, 2010).

The EC50 is the concentration at which the effect is half-maximal. For orientation: IC50 means the point on the concentration scale where inhibition reaches its midpoint.

`CNC(=O)C1(c2ccccc2)CCN(c2ncc(C(O)(C(F)(F)F)C(F)(F)F)s2)CC1` registered an EC50 in test [1] of 0.64 µM.

In the case of `O=C(O)c1cccc(C2CCN(c3ncc(C(O)(C(F)(F)F)C(F)(F)F)s3)CC2)c1`, the EC50 in [1] amounted to 0.23 µM.

Turning to `NC(=O)c1cccc(N2CCC(c3ncc(C(O)(C(F)(F)F)C(F)(F)F)s3)CC2)c1`, the concentration giving a half-maximal response (EC50) in test [1] amounted to 2 µM.

Compound `NC(=O)C1(c2cccc(C(=O)O)c2)CCN(c2ncc(C(O)(C(F)(F)F)C(F)(F)F)s2)CC1` came in with an EC50 in test [1] of 0.15 µM.

As to `NC(=O)C1(c2ccccc2)CCN(c2ncc(C(O)(C(F)(F)F)C(F)(F)F)s2)CC1`, the Activity in the test on Mus musculus [2] was 70%; in the test on Mus musculus [3], 29%; with Mus musculus [4], -2.4%; with Mus musculus [5], -5.7%; with Mus musculus [6], -5.5%; in the test on Mus musculus [7], 60%. Moreover, the Activity was determined as 41% in the test with Mus musculus [8] and 14.3% with Mus musculus [9]. In test [1], this compound came in with an EC50 of 1.1 µM.

The compound `NC(=O)c1cccc(C2CCN(c3ncc(C(O)(C(F)(F)F)C(F)(F)F)s3)CC2)c1` registered a concentration giving a half-maximal response (EC50) in test [1] of 0.95 µM.

`OC(c1cnc(C2CCN(c3ccc(F)cc3)CC2)s1)(C(F)(F)F)C(F)(F)F`: in test [1], the EC50 is more than 20 µM.

Turning to `CNC(=O)c1cccc(N2CCN(c3ncc(C(O)(C(F)(F)F)C(F)(F)F)s3)CC2)c1`, the Activity with Mus musculus [2] was 186%; with Mus musculus [3], 65%; in the test on Mus musculus [4] it was -1.3%; in the test on Mus musculus [5], -12.4%; with Mus musculus [6], -2.1%; in the test on Mus musculus [7], 65%. Further, the values for the Activity in the test with Mus musculus [8] and in the test on Mus musculus [9] were 30% and 20%, respectively. The compound also displayed an EC50 in test [1] of 0.63 µM.

In test [1], `OC(c1cnc(N2CCN(c3ccc(F)c(F)c3)CC2)s1)(C(F)(F)F)C(F)(F)F` registered an EC50 of more than 20 µM.

In [10], `Cc1cc(C(O)(C(F)(F)F)C(F)(F)F)ccc1C(Cc1cc[n+]([O-])cc1)c1ccc(OC(F)F)c(OC(F)F)c1` (configuration not stated) registered an IC50 of 0.0133 µM.

With `CS(=O)(=O)NC(=O)C1(c2ccccc2)CCN(c2ncc(C(O)(C(F)(F)F)C(F)(F)F)s2)CC1`, a half-maximal effect in test [1] (EC50) was put at 0.5 µM. Also, the Activity with Mus musculus [11] was 53%; with Mus musculus [12], -12%; in the test with Mus musculus [7], 60%; in the test with Mus musculus [8] it was 48%; in the test on Mus musculus [13], 28%; with Mus musculus [14], 53%.

For the compound `NC(=O)c1cccc(N2CCN(c3ncc(C(O)(C(F)(F)F)C(F)(F)F)s3)CC2)c1`, the Activity with Mus musculus [2] was 36%; with Mus musculus [3], 50%; in the test with Mus musculus [4] it was 0.8%; in the test on Mus musculus [5] it was 0.8%; in the test with Mus musculus [6], -3.3%; in the test with Mus musculus [7], 78%. For the same compound, the figures for the Activity in the test with Mus musculus [8] and with Mus musculus [9] were 32% and -2.2%, respectively. Besides, in [1], the concentration for a half-maximal effect (EC50) was 1.4 µM.
